A word on the inhibition: it is the share of the control response that was lost under treatment. By pEC50 is commonly meant the negative decadic logarithm of the EC50, by convention in mol/L.

The values below come from ChEMBL document CHEMBL3880390, “Agents for preventing and treating disorders involving modulation of the RYR receptors” (2014).

In series [1] the target is T1, hERG (KCNH2) (Homo sapiens, UniProt Q12809). Description: Inhibition of human ERG expressed in HEK293 cells at 0.1 uM after 5 mins at -80 mV holding potential by patch clamp assay. It is filed as cell-based. The conditions noted are these: HEK293 cells expressing human ERG.
Series [2] addresses T1, hERG (KCNH2). Description: Inhibition of human ERG expressed in HEK293 cells at 10 uM after 5 mins at -80 mV holding potential by patch clamp assay. It is filed as cell-based. The conditions noted are these: HEK293 cells expressing human ERG.
In series [3] the target is T1, hERG (KCNH2). Description: Inhibition of human ERG expressed in HEK293 cells at 1 uM after 5 mins at -80 mV holding potential by patch clamp assay. It is filed as cell-based. Particulars: HEK293 cells expressing human ERG. (In general: In patch-clamp work, channel activity is measured electrically.)
Series [4] concerns the target T1, hERG (KCNH2). Description: Inhibition of human ERG expressed in HEK293 cells at 0.01 uM after 5 mins at -80 mV holding potential by patch clamp assay. The series is classed as cell-based. The conditions noted are these: HEK293 cells expressing human ERG.
Series [5] concerns the target T2, Ryanodine receptor 2 (Homo sapiens, UniProt Q92736). Description: Induction of FKBP12.6 re-binding to PKA-phosphorylated-RyR2 (unknown origin) after 30 mins in presence of [35S]-FKBP12.6 by liquid scintillation counting.
The target of series [6] is T2, Ryanodine receptor 2. Description: Induction of calstabin-2 binding to RyR2 P2328S mutant (unknown origin) at 0.1 umol/L.
For series [7], the species on record is Mus musculus. Description: Antiarrhythmic activity in haploinsufficient FKBP12.6 expressing mouse assessed as reduction in sustained ventricular tachycardia at 0.2 to 1 uM under testing exercise followed by epinephrine injection relative to control. It is filed as functional.
Series [8] concerns Mus musculus. Description: Antiarrhythmic activity in haploinsufficient FKBP12.6 expressing mouse assessed as plasma concentration showing prevention of cardiac arrhythmias dosed via osmotic mini-pump under testing exercise followed by epinephrine injection relative to control. It is filed as functional, organism-based.
The species entered for series [9] is Mus musculus. Description: Induction of cardiac function improvement in myocardial infarction-induced acute heart failure mouse model at plasma concentration 200 nM after 7 days post myocardial infarction. The series is classed as functional.
In series [10] the target is T2, Ryanodine receptor 2. Description: Induction of normalization of single channel closed state of wild type PKA phosphorylated RyR2 (unknown origin) assessed as channel open probability at 0.1 umol/L relative to control.
In series [11] the test system is Mus musculus. Description: Antiarrhythmic activity in haploinsufficient FKBP12.6 expressing mouse assessed as plasma concentration showing prevention of sudden cardiac death dosed via osmotic mini-pump under testing exercise followed by epinephrine injection relative to control. The series is classed as functional, organism-based.
The target in series [12] is T2, Ryanodine receptor 2. Description: Induction of FKBP12.6 re-binding to PKA-phosphorylated-RyR2 (unknown origin) at 10 to 1000 nM after 30 mins in presence of [35S]-FKBP12.6 by liquid scintillation counting.
The species named for series [13] is Mus musculus. Description: Induction of cardiac function improvement in myocardial infarction-induced acute heart failure mouse model subjected to permanent ligation of left anterior descending coronary artery assessed as increase in cardiac contractility at plasma concentration 200 nM after 7 days post myocardial infarction. The series is classed as functional.

The species entered for series [14] is Mus musculus. Description: Induction of cardiac function improvement in myocardial infarction-induced acute heart failure mouse model subjected to permanent ligation of left anterior descending coronary artery assessed as increase in fractional shortening at plasma concentration of 100 to 200 nM after 2 weeks post myocardial infarction by echocardiography. The series is classed as functional.

For series [15], the target named is T2, Ryanodine receptor 2. Description: Induction of normalization of single channel closed state of PKA phosphorylated RyR2 P2328S mutant (unknown origin) assessed as channel open probability level at 0.1 umol/L (reference value: 14.4%).

Each structure is given as a SMILES string. pEC50: −log10 of the molar value. Activity calls are given as the source filed them. The calls are words filed in the database; no cut-off is given here.

T2 sequence (Q92736 whole entry): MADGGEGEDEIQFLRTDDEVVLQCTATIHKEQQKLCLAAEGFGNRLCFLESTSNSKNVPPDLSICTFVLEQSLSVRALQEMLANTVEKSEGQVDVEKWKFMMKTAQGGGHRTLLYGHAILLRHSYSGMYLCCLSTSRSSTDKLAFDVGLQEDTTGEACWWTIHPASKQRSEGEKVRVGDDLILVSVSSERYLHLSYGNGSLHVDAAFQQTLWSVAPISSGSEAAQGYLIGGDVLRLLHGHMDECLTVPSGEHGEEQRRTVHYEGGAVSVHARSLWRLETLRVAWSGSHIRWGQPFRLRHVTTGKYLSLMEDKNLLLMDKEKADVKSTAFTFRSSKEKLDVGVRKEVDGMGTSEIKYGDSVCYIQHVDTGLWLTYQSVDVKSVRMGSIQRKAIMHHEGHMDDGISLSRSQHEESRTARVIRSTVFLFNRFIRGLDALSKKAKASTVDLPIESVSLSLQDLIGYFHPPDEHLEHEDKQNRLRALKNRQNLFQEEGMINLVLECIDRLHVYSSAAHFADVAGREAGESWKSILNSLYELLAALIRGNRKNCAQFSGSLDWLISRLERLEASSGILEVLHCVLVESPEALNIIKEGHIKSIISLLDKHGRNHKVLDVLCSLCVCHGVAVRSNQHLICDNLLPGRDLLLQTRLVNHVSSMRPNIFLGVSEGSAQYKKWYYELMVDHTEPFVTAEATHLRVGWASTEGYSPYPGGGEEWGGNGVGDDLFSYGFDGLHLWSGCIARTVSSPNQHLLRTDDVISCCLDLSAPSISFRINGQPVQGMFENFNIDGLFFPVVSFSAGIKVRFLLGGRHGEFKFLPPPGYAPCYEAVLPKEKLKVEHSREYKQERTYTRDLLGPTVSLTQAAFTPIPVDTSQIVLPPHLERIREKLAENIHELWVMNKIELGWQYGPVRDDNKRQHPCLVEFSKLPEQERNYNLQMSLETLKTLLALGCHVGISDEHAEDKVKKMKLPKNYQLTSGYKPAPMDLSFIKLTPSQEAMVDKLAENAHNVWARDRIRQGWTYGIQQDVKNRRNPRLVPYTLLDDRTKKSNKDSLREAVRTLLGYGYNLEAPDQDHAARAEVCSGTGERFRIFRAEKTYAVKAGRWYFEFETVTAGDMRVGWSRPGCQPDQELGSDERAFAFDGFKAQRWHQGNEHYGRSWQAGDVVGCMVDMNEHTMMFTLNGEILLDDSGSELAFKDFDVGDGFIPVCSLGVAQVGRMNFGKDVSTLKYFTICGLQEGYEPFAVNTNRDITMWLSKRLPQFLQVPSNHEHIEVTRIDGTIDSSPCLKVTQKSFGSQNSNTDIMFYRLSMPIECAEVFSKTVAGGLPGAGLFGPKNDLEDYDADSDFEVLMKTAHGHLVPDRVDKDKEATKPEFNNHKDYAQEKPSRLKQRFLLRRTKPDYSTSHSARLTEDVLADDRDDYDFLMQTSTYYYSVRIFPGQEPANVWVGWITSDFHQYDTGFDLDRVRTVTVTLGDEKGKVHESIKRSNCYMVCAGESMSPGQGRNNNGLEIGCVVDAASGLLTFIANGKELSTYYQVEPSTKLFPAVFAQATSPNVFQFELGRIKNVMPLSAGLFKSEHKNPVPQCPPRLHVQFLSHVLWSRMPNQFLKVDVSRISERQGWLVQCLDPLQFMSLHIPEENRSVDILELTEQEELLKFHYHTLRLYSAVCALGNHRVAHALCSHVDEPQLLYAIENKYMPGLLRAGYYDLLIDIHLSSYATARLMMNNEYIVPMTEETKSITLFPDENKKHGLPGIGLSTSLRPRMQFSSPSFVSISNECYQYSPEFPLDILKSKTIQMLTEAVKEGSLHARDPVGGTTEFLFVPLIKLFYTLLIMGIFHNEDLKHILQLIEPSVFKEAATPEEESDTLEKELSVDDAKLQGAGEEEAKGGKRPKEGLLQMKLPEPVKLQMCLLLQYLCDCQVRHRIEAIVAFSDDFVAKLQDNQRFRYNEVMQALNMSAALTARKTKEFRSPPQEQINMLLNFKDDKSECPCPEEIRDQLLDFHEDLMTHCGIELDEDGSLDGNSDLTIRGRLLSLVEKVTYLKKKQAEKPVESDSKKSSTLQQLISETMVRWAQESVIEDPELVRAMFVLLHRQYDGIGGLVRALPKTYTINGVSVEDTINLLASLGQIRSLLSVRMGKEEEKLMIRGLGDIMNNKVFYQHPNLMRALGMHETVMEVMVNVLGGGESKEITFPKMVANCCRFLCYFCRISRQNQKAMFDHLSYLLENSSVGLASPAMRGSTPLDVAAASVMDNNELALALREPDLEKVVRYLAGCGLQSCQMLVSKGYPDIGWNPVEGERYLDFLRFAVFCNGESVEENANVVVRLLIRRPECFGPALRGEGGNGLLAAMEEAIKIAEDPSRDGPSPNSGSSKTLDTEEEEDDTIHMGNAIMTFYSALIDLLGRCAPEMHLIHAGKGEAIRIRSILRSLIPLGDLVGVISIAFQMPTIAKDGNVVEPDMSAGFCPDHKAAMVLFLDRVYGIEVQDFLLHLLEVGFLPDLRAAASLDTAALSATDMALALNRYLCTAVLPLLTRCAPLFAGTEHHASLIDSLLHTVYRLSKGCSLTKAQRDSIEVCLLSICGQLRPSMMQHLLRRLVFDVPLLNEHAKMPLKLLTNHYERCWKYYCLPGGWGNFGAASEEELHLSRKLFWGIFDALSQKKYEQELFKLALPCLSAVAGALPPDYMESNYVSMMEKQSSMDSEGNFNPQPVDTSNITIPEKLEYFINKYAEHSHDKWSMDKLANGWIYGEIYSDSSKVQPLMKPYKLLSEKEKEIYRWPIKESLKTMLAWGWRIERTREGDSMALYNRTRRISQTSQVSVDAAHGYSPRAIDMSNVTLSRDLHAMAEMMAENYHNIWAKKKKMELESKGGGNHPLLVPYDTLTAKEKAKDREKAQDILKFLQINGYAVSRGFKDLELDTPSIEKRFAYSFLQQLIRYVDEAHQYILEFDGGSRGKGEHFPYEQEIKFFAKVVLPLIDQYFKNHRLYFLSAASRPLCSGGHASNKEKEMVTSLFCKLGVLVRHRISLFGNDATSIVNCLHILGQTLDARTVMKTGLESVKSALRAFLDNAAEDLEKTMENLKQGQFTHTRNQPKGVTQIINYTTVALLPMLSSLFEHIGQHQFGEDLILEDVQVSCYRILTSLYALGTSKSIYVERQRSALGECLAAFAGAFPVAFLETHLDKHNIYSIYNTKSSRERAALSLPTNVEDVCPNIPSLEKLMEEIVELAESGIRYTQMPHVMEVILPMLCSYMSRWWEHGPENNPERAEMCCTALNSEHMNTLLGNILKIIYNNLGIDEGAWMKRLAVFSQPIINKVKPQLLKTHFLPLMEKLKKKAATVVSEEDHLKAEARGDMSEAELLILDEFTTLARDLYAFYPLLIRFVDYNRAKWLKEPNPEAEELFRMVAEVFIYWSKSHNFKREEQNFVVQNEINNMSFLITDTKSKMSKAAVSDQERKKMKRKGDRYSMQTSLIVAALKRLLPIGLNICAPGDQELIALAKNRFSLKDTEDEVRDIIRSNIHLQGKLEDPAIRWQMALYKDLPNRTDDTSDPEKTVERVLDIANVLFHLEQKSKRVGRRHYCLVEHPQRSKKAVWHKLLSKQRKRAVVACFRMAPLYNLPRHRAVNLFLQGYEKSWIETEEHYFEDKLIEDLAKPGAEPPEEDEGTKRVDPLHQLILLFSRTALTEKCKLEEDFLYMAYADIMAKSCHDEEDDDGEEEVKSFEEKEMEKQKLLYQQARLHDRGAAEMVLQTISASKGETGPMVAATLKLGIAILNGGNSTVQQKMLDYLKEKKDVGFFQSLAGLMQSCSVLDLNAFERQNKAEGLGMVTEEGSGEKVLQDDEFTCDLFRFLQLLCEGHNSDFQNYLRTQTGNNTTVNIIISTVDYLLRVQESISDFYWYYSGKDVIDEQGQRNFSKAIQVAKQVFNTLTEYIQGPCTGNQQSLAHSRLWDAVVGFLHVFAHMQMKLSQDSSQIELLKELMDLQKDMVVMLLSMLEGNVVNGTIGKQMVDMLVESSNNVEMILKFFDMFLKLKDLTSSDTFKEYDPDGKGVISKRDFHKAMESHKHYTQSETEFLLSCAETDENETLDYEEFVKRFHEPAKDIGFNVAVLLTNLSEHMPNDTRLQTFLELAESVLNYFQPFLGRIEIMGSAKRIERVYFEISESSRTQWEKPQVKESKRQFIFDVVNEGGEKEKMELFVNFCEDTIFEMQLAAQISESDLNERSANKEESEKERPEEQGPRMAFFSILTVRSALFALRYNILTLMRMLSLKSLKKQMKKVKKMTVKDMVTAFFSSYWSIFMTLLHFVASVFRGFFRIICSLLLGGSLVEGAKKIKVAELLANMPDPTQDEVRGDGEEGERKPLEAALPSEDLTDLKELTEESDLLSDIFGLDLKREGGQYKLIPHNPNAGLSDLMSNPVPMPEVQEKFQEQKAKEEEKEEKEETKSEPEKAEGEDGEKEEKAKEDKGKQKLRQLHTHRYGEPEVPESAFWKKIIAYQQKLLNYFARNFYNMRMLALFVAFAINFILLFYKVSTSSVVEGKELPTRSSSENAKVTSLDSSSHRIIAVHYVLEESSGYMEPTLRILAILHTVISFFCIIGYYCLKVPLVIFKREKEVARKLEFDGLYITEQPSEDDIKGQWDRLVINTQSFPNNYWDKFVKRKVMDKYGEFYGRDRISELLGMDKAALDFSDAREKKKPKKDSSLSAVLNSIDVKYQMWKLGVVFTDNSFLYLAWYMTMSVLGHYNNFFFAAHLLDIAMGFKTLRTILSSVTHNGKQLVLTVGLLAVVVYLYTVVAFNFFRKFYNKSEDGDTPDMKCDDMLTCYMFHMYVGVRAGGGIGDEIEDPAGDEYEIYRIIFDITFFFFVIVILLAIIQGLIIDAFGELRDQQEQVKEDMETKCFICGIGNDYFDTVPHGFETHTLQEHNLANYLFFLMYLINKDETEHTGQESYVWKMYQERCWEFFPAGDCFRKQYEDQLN

In series [1], `COc1ccc2c(c1)CN(C(=O)N1CCN(Cc3ccc4c(c3)OCO4)CC1)CCS2` came in with an inhibition at 5 min, 0.1 µM of 9.7%. Further, the inhibition at 5 min, 10 µM in series [2] was 78%. In series [3], this molecule gave an inhibition at 5 min, 1 µM of 29.6%. This molecule displayed an inhibition at 5 min, 0.01 µM in series [4] of 2.7%.

Consider `COc1ccc2c(c1)CN([P@](=O)(OC)c1ccccc1)CCS2`, for which, in [5], the pEC50 is 6.74.

For `COc1ccc2c(c1)CN(C(=O)C(=O)O)CCS2`, the result in [6], in series [7], in [9], in [10], in [12] and in series [13] was Active. In [14], the result was Active. In addition, the Cp in series [8] and in series [11] was 0.02 to 1 µM each time. In addition, the Activity in series [15] came to 0.3%.

In turn, `O=C(NO)N1CCSc2ccccc2C1` yielded an inhibition at 5 min, 0.1 µM in series [1] of 4.8%. This molecule also came in with an inhibition at 5 min, 10 µM in series [2] of 9.5%. This molecule also gave an inhibition at 5 min, 1 µM in [3] of 1.3%. The molecule further displayed an inhibition at 5 min, 0.01 µM in series [4] of 1.9%.

Regarding `COc1ccc2c(c1)CN([P@@](=O)(OC)c1ccccc1)CCS2`, in series [5], the negative-log EC50 (pEC50) was 6.76.

As to `O=C(N1CCCCC1)N1CCSc2ccccc2C1`, the inhibition at 5 min, 0.1 µM in series [1] amounted to 4.2%. In [2], the inhibition at 5 min, 10 µM was determined as 47.3%. For the same molecule, the inhibition at 5 min, 1 µM in series [3] was found to be 5.7%. Further, the inhibition at 5 min, 0.01 µM in series [4] is 2.5%.

Consider `COc1ccc2c(c1)CN(S(=O)(=O)Nc1cccnc1)CCS2`, for which, in series [5], the negative logarithm of the EC50 (pEC50) was 7.11.

In the case of `COC(=O)C(=O)N1CCSc2ccc(OC)cc2C1`, in series [1], the inhibition at 5 min, 0.1 µM is 7.3%. The molecule further had an inhibition at 5 min, 10 µM in series [2] of 13.6%. The molecule further registered an inhibition at 5 min, 1 µM in series [3] of 2.7%. The inhibition at 5 min, 0.01 µM in [4] was 0.2%.

On to `O=C(O)C(=O)N1CCSc2ccccc2C1`, for which, in series [1], the inhibition at 5 min, 0.1 µM was 7.5%. The molecule further showed an inhibition at 5 min, 10 µM in series [2] of 4.1%. The inhibition at 5 min, 1 µM in series [3] was found to be 3.6%. For the same molecule, in series [4], the inhibition at 5 min, 0.01 µM turned out to be 1.3%.

Regarding `COc1ccc2c(c1)CN(C)CCS2`, the inhibition at 5 min, 0.1 µM in [1] came to 4%. The same molecule had an inhibition at 5 min, 10 µM in series [2] of 32.1%. This molecule also gave an inhibition at 5 min, 1 µM in [3] of 6.2%. This molecule also came in with an inhibition at 5 min, 0.01 µM in series [4] of 2.9%.
